Measured values as given in ChEMBL document CHEMBL1130317 (J Med Chem, 1997).

Columns and labels:
[1] = biological target: Aldo-keto reductase family 1 member B1 (Rattus norvegicus) (UniProt P07943); test: Inhibitory activity against rat lens aldose reductase(AR) at the concentration of 1*10e-7 M
[2] = biological target: T1, Aldo-keto reductase family 1 member A1 (Rattus norvegicus) (UniProt P51635); test: Percent inhibition of rat kidney Aldehyde reductase (ALR) at 1x10E-4 M
T1 sequence (whole entry): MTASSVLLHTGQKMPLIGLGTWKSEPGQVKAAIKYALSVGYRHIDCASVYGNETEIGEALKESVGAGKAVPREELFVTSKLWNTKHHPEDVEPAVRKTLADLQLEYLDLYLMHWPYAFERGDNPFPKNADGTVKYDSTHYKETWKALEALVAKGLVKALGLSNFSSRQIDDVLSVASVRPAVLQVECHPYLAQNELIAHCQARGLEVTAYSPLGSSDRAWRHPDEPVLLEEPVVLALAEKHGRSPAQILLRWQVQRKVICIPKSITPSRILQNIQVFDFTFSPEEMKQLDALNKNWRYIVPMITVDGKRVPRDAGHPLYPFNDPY

[3] = biological target: T2, Aldo-keto reductase family 1 member A1 (Rattus norvegicus, UniProt P51635); test: In vitro inhibitory activity against rat kidney aldehyde reductase(ALR).
T2 sequence (P51635 whole entry): T1 sequence (whole entry)

Rattus norvegicus = species on record: Rattus norvegicus; test: Ratio of IC50 value of rat kidney ALR to rat lens AR; assay type: tissue-based; conditions: Lens of camera-type eye
[4] = biological target: Aldo-keto reductase family 1 member B1 (Rattus norvegicus, UniProt P07943); test: Inhibitory activity against rat lens aldose reductase(AR).

Which inhibition [1] does the source give for `O=C(O)CN1CC(=O)N(Cc2nc3cc(Cl)ccc3s2)C1=O` here?
The inhibition was 47.5%.

How did the inhibition [2] turn out when `O=C(O)CN1CC(=O)N(Cc2cccc([N+](=O)[O-])c2)C1=O` was run?
Its inhibition is 3.8%.

And the IC50 [3]?
The IC50 was > 100 µM.

And the inhibition [1]?
The inhibition was 38.2%.

What does the source list for `O=C(O)Cn1ccc(=O)n(Cc2nc3cc(Cl)ccc3s2)c1=O`?
inhibition [2]: 32%; Ratio (Rattus norvegicus): > 17500; IC50 [3]: > 100 µM; IC50 [4]: 0.0057 µM

How did the inhibition [2] turn out when `O=C(O)CN1C(=O)C(O)N(Cc2cccc([N+](=O)[O-])c2)C1=O` (configuration not stated) was run?
The inhibition was 19%.

What about the IC50 [3] of the same compound?
Its IC50 is > 100 µM.

And the inhibition [1]?
The inhibition was 5%.

Which Ratio (Rattus norvegicus) does the source give for `O=C(O)CN1C(=O)C(=O)N(Cc2cccc([N+](=O)[O-])c2)C1=S` here?
Its Ratio is 1120.

What about the IC50 [3] of the same compound?
Its IC50 is 28 µM.

And the IC50 [4]?
The IC50 was 0.025 µM.

What does the source list for `O=C(O)Cn1c(=O)ccn(Cc2cccc([N+](=O)[O-])c2)c1=O`?
inhibition [2]: 11.8%; IC50 [3]: > 100 µM; inhibition [1]: 27.8%

With `O=C(O)CN1C(=O)CC(=O)N(Cc2cccc([N+](=O)[O-])c2)C1=O` as the compound, how does the inhibition [2] read?
Its inhibition is 33.5%.

And the IC50 [3]?
The IC50 was > 100 µM.

And the inhibition [1]?
The inhibition was 1.5%.

What does the source list for `O=C(O)Cn1ccc(=O)n(Cc2nc3c(Cl)cccc3s2)c1=O`?
inhibition [2]: 39.3%; Ratio (Rattus norvegicus): > 9090; IC50 [3]: > 100 µM; IC50 [4]: 0.011 µM

For `O=C(O)CN1C(=O)C(=O)N(Cc2nc3cc(Cl)ccc3s2)C1=O`, which Ratio (Rattus norvegicus) is on record?
The Ratio was 3870.

What about the IC50 [3] of the same compound?
The IC50 was 58 µM.

What about the IC50 [4] of the same compound?
The IC50 was 0.015 µM.

What does the source list for `O=C(O)CN1C(=O)N(Cc2cccc([N+](=O)[O-])c2)C(=O)C1O` (configuration not stated)?
inhibition [2]: 11%; IC50 [3]: > 100 µM; inhibition [1]: 44%

Which results are given for `C=C1C(=O)N(CC(=O)O)C(=O)N1Cc1cccc([N+](=O)[O-])c1`?
Ratio (Rattus norvegicus): 1810; IC50 [3]: 58 µM; IC50 [4]: 0.032 µM

Which results are given for `O=C(O)Cn1ccc(=O)n(Cc2ccc(Cl)c([N+](=O)[O-])c2)c1=O`?
inhibition [2]: 26.5%; Ratio (Rattus norvegicus): > 4000; IC50 [3]: > 100 µM; IC50 [4]: 0.025 µM

Which inhibition [2] does the source give for `O=C(O)CN1C(=O)C(=O)N(Cc2cccc([N+](=O)[O-])c2)C1=O` here?
The inhibition was 37.3%.

`O=C(O)CN1C(=O)C(=O)N(Cc2ccc(Cl)c([N+](=O)[O-])c2)C1=O` was tested. Which inhibition [2] did it give?
Its inhibition is 39.5%.

What about the Ratio (Rattus norvegicus) of the same compound?
Its Ratio is > 6250.

What about the IC50 [3] of the same compound?
Its IC50 is > 100 µM.

What about the IC50 [4] of the same compound?
Its IC50 is 0.016 µM.

Which inhibition [2] does the source give for `O=C(O)CN1CC(=O)N(Cc2ccc(Cl)c([N+](=O)[O-])c2)C1=O` here?
The inhibition was 1.6%.

And the Ratio (Rattus norvegicus)?
The Ratio was > 4170.

What about the IC50 [3] of the same compound?
The IC50 was > 100 µM.

And the IC50 [4]?
Its IC50 is 0.024 µM.

How did the inhibition [2] turn out when `O=C(O)Cn1ccc(=O)n(Cc2cccc([N+](=O)[O-])c2)c1=O` was run?
Its inhibition is 17.4%.

What about the Ratio (Rattus norvegicus) of the same compound?
Its Ratio is > 2940.

And the IC50 [3]?
Its IC50 is > 100 µM.

And the IC50 [4]?
Its IC50 is 0.034 µM.

With `O=C(O)CN1C(=O)CN(Cc2cccc([N+](=O)[O-])c2)C1=O` as the compound, how does the IC50 [3] read?
The IC50 was > 100 µM.

What about the inhibition [1] of the same compound?
The inhibition was 4.6%.

For `O=C(O)CN1CC(=O)N(Cc2nc3c(Cl)cccc3s2)C1=O`, which inhibition [2] is on record?
The inhibition was 37%.

And the Ratio (Rattus norvegicus)?
The Ratio was > 1610.

And the IC50 [3]?
The IC50 was > 100 µM.

And the IC50 [4]?
Its IC50 is 0.062 µM.

What does the source list for `O=C(O)CN1C(=O)C(=O)N(Cc2nc3c(Cl)cccc3s2)C1=O`?
Ratio (Rattus norvegicus): 6000; IC50 [3]: 72 µM; IC50 [4]: 0.012 µM

What does the source list for `C=C1N(CC(=O)O)C(=O)C(=O)N1Cc1cccc([N+](=O)[O-])c1`?
inhibition [2]: 12.4%; IC50 [3]: > 100 µM; inhibition [1]: 17.7%
